From US10160755B2 (Plexxikon Inc., priority 2015, dated 2018)

What was measured:
[1] = molecular target: T1, FLT3-D835Y (Homo sapiens, UniProt P36888, D835Y); experiment: FLT3-D835Y biochemical kinase assay (AlphaScreen)
T1 construct: purchased Invitrogen PV3967
T1 sequence (P36888 27-993 D835Y): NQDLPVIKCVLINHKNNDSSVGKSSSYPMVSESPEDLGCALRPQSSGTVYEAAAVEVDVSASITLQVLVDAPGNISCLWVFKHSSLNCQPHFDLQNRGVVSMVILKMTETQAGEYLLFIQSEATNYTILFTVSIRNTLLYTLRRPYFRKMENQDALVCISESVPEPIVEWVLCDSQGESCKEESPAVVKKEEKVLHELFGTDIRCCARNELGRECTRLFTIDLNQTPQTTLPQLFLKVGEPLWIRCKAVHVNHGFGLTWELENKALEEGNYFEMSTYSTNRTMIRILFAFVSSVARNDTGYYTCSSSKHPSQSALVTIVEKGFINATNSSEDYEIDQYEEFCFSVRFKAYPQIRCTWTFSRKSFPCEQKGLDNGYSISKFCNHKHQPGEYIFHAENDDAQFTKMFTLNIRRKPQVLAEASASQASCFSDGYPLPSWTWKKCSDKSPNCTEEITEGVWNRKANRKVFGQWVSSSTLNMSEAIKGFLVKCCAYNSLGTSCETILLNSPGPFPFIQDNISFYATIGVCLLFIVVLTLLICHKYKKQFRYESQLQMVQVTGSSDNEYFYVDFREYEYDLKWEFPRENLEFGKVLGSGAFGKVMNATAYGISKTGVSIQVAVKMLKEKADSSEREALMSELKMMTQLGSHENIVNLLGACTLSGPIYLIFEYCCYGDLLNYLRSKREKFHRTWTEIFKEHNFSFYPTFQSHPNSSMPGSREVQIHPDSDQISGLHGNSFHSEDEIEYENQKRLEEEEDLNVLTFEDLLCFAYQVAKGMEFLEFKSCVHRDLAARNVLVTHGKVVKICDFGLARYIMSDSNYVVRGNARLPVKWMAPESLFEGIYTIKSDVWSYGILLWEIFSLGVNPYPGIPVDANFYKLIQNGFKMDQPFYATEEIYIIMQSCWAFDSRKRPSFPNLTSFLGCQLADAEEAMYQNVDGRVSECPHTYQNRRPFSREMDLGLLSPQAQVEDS
Outline: (§1)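 Recombinant FLT3 mutant kinases phosphorylate biotin-poly(Glu4-Tyr) peptide (30 nM) at 10 μM ATP for D835Y or 100 μM for ITD. Phosphorylation detected by AlphaScreen: streptavidin donor beads (20 min) then anti-phosphotyrosine PY20 acceptor beads (60 min, RT), signal at 580 nm; inhibition lowers signal.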

[2] = molecular target: T2, FLT3-ITD (Homo sapiens, UniProt P36888); experiment: FLT3-ITD biochemical kinase assay (AlphaScreen)
T2 construct: FLT3-ITD; Invitrogen #PV6190
T2 sequence (P36888 1-993): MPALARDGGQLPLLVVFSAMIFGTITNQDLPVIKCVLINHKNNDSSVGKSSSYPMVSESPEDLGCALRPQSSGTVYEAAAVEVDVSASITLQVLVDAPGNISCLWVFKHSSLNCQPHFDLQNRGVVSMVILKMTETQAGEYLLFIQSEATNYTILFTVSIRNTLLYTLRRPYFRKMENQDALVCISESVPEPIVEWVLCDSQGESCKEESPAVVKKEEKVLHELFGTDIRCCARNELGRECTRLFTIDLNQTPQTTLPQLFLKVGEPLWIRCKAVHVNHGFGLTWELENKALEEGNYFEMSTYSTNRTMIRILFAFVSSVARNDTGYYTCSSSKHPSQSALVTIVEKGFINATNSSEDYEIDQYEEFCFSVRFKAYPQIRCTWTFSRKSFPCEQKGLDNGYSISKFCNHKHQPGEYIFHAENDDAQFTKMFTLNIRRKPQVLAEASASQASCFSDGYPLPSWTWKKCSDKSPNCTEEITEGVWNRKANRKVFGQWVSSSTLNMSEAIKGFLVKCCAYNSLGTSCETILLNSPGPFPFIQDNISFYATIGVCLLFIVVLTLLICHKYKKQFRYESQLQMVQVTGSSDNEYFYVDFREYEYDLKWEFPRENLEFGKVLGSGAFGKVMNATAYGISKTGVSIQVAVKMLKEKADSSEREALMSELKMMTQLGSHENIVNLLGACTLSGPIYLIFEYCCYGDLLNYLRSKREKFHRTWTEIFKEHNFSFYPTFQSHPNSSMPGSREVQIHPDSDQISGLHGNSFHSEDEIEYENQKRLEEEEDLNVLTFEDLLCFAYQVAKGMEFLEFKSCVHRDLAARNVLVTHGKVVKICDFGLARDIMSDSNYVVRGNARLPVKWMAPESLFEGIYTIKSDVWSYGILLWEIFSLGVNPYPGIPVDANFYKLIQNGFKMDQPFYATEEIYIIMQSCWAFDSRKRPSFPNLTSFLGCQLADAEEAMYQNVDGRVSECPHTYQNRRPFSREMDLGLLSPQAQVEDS
Outline: as §1

Compound	IC50 [1] [µM]	IC50 [2] [µM]
COc1cc(-c2cnc3[nH]cc(-c4ccc5ncn(C6CCCN(C(C)=O)C6)c5c4)c3n2)ccn1 (stereo not shown) [P-260, 1-[3-[6-[2-(2-methoxy-4-pyridyl)-5H-pyrrolo[2,3-b]pyrazin-7-yl]benzimidazol-1-yl]-1-piperidyl]ethanone]	0.0001 to 1	0.0001 to 1
CC(C)(C)n1cnc2ccc(-c3c[nH]c4ncc(C(=O)Nc5cccc(C#N)c5)cc34)cc21 [P-218, 3-(3-tert-butylbenzimidazol-5-yl)-N-(3-cyanophenyl)-1H-pyrrolo[2,3-b]pyridine-5-carboxamide]	0.0001 to 1	0.0001 to 1
CC(C)(C)n1cnc2ccc(-c3c[nH]c4ncc(-c5cnn(C(F)F)c5)cc34)cc21 [P-251, 1-tert-butyl-6-[5-[1-(difluoromethyl)pyrazol-4-yl]-1H-pyrrolo[2,3-b]pyridin-3-yl]benzimidazole]	0.0001 to 1	0.0001 to 1
COc1cc(C(=O)Nc2cnc3[nH]cc(-c4ccc5ncn(C6CCCNC6)c5c4)c3c2)ccn1 (stereo not shown) [P-247, 2-methoxy-N-[3-[3-(3-piperidyl)benzimidazol-5-yl]-1H-pyrrolo[2,3-b]pyridin-5-yl]pyridine-4-carboxamide]	0.0001 to 1	0.0001 to 1
COc1cc(-c2cnc3[nH]cc(-c4ccc5ncn(C(C)(C)CO)c5c4)c3n2)ccn1 [P-186, 2-[6-[2-(2-methoxy-4-pyridyl)-5H-pyrrolo[2,3-b]pyrazin-7-yl]benzimidazol-1-yl]-2-methyl-propan-1-ol]	0.0001 to 1	0.0001 to 1
N#Cc1cc(-c2cnc3[nH]cc(-c4ccc5ncn(C6CCCNC6)c5c4)c3n2)ccc1F (stereo not shown) [P-238, 2-fluoro-5-[7-[3-(3-piperidyl)benzimidazol-5-yl]-5H-pyrrolo[2,3-b]pyrazin-2-yl]benzonitrile]	0.0001 to 1	0.0001 to 1
COc1cnc2[nH]cc(-c3cnc4ncn(Cc5cc(C)on5)c4c3)c2c1 [P-144, 3-[[6-(5-methoxy-1H-pyrrolo[2,3-b]pyridin-3-yl)imidazo[4,5-b]pyridin-1-yl]methyl]-5-methyl-isoxazole]	0.0001 to 1	0.0001 to 1
COC(=O)N1CCCC(n2cnc3ccc(-c4c[nH]c5ncc(-c6ccnc(OC)c6)nc45)cc32)C1 (stereo not shown) [P-261, methyl 3-(6-(2-(2-methoxypyridin-4-yl)-5H-pyrrolo[2,3-b]pyrazin-7-yl)-1H-benzo[d]imidazol-1-yl)piperidine-1-carboxylate]	0.0001 to 1	0.0001 to 1
CC(C)(C)n1cnc2ccc(-c3c[nH]c4ncc(-c5cnc(N6CCOCC6)nc5)cc34)cc21 [P-266, 4-[5-[3-(3-tert-butylbenzimidazol-5-yl)-1H-pyrrolo[2,3-b]pyridin-5-yl]pyrimidin-2-yl]morpholine]	0.0001 to 1	0.0001 to 1
COc1cc(-c2cnc3[nH]nc(-c4ccc5ncn(C(C)(C)C)c5c4)c3c2)ccn1 [P-272, 3-(1-(tert-butyl)-1H-benzo[d]imidazol-6-yl)-5-(2-methoxypyridin-4-yl)-1H-pyrazolo[3,4-b]pyridine]	0.0001 to 1	0.0001 to 1
C#Cc1cnc2[nH]cc(-c3ccc4ncn(C(C)(C)C)c4c3)c2n1 [P-259, 7-(3-tert-butylbenzimidazol-5-yl)-2-ethynyl-5H-pyrrolo[2,3-b]pyrazine]	0.0001 to 1	0.0001 to 1
O=S1(=O)CCCN1c1cccc(-c2cnc3[nH]cc(-c4ccc5ncn(C6CCCNC6)c5c4)c3n2)c1 (stereo not shown) [P-273, 2-[3-[7-[3-(3-piperidyl)benzimidazol-5-yl]-5H-pyrrolo[2,3-b]pyrazin-2-yl]phenyl]-1,2-thiazolidine 1,1-dioxide]	0.0001 to 1	0.0001 to 1
CN(c1cccc(-c2cnc3[nH]cc(-c4ccc5ncn(C)c5c4)c3n2)c1)S(C)(=O)=O [P-150, N-methyl-N-[3-[7-(3-methylbenzimidazol-5-yl)-5H-pyrrolo[2,3-b]pyrazin-2-yl]phenyl]methanesulfonamide]	0.0001 to 1	0.0001 to 1
FC(F)(F)Cn1cc(-c2cnc3[nH]cc(-c4ccc5ncn(C6CCCNC6)c5c4)c3n2)cn1 (stereo not shown) [P-258, 7-[3-(3-piperidyl)benzimidazol-5-yl]-2-[1-(2,2,2-trifluoroethyl)pyrazol-4-yl]-5H-pyrrolo[2,3-b]pyrazine]	0.0001 to 1	0.0001 to 1
COc1ncccc1C#Cc1cnc2[nH]cc(-c3ccc4ncn(C(C)(C)C)c4c3)c2n1 [P-250, 7-(3-tert-butylbenzimidazol-5-yl)-2-[2-(2-methoxy-3-pyridyl)ethynyl]-5H-pyrrolo[2,3-b]pyrazine]	0.0001 to 1	0.0001 to 1
COc1cc(-c2cnc3[nH]cc(-c4ccc5ncn([C@@H]6CCCNC6)c5c4)c3n2)ccn1 [P-254, 2-(2-methoxy-4-pyridyl)-7-[3-[(3R)-3-piperidyl]benzimidazol-5-yl]-5H-pyrrolo[2,3-b]pyrazine]	0.0001 to 1	0.0001 to 1
N#Cc1cccc(NC(=O)c2cnc3[nH]cc(-c4ccc5ncn(C6CCCNC6)c5c4)c3c2)c1 (stereo not shown) [P-219, N-(3-cyanophenyl)-3-(1-(piperidin-3-yl)-1H-benzo[d]imidazol-6-yl)-1H-pyrrolo[2,3-b]pyridine-5-carboxamide]	0.0001 to 1	0.0001 to 1
CC(C)(C)n1cnc2ccc(-c3c[nH]c4ncc(-c5cnn(CC(F)(F)F)c5)nc34)cc21 [P-256, 7-(3-tert-butylbenzimidazol-5-yl)-2-[1-(2,2,2-trifluoroethyl)pyrazol-4-yl]-5H-pyrrolo[2,3-b]pyrazine]	0.0001 to 1	0.0001 to 1
CC(C)(C)n1cnc2ccc(-c3c[nH]c4ncc(C#Cc5cccc(OC(F)(F)F)c5)nc34)cc21 [P-249, 7-(3-tert-butylbenzimidazol-5-yl)-2-[2-[3-(trifluoromethoxy)phenyl]ethynyl]-5H-pyrrolo[2,3-b]pyrazine]	0.0001 to 1	0.0001 to 1
COc1cnc2[nH]cc(-c3ccc4ncn(-c5cccc(C#N)c5)c4c3)c2c1 [P-135, 3-[6-(5-methoxy-1H-pyrrolo[2,3-b]pyridin-3-yl)benzimidazol-1-yl]benzonitrile]	0.0001 to 1	0.0001 to 1
COc1cc(C#Cc2cnc3[nH]cc(-c4ccc5ncn(C6CCCNC6)c5c4)c3c2)ccn1 (stereo not shown) [P-241, 5-[2-(2-methoxy-4-pyridyl)ethynyl]-3-[3-(3-piperidyl)benzimidazol-5-yl]-1H-pyrrolo[2,3-b]pyridine]	0.0001 to 1	0.0001 to 1
FC(F)(F)Oc1cccc(C#Cc2cnc3[nH]cc(-c4ccc5ncn(C6CCCNC6)c5c4)c3n2)c1 (stereo not shown) [P-246, 7-[3-(3-piperidyl)benzimidazol-5-yl]-2-[2-[3-(trifluoromethoxy)phenyl]ethynyl]-5H-pyrrolo[2,3-b]pyrazine]	0.0001 to 1	0.0001 to 1
N#Cc1cccc(C#Cc2cnc3[nH]cc(-c4ccc5ncn(C6CCCNC6)c5c4)c3c2)c1 (stereo not shown) [P-243, 3-[2-[3-[3-(3-piperidyl)benzimidazol-5-yl]-1H-pyrrolo[2,3-b]pyridin-5-yl]ethynyl]benzonitrile]	0.0001 to 1	0.0001 to 1
